{"source": "patent US20260374739A1", "about": "“SMALL MOLECULAR WEIGHT CHEMICAL COMPOUND TO ANTAGONIZE EPH-EPHRIN TETRAMERIZATION AND INHIBIT BIDIRECTIONAL SIGNALING” (THE BOARD OF REGENTS OF THE UNIVERSITY OF TEXAS SYSTEM, priority 2022, published 2026)", "key": {"EphB2-Fc with EB2-His": {"molecular_target": "T1, EphB2-Fc with EB2-His (Mus musculus, UniProt P54763)", "T1 construct": "soluble EphB ectodomains conjugated to Fc from R&D Systems; mouse EB2-His residues 18-232; purchased R&D Systems (EphB-Fc); Sino Biologicals (EphrinB-His)", "T1 sequence (P54763 19-543 limits assumed)": "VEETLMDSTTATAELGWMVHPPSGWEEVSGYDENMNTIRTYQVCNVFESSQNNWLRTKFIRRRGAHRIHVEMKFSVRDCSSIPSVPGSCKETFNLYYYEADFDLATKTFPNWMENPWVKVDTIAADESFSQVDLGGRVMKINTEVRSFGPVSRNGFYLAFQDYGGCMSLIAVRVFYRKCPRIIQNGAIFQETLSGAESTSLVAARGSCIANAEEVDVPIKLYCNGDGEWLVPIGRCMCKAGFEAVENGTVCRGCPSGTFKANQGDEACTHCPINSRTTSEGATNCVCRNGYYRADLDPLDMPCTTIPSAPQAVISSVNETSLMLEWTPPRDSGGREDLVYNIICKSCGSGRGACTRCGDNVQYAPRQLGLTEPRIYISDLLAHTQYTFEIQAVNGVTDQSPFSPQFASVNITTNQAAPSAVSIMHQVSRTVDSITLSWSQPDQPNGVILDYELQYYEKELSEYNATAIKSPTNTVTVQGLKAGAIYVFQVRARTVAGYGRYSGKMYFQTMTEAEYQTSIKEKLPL", "assay": "Alpha assay EphB2-EB2", "type": "binding", "protocol": "FIG. 5D depicts results from an alpha assay using EphB2-Fc or EphB4-Fc with EB2-His and increasing A20 concentrations to calculate IC50 determination (~10 μM, similar to that found in FIG. 5C).\nProtein interaction assays were developed using soluble EphB ectodomains conjugated to Fc from R&D Systems (e.g., rat EphB1-Fc residues 18-538, which is 99.4% identical to human) and EphrinB ectodomains conjugated to His from Sino Biologicals (e.g., mouse EB2-His residues 18-232, which is 97.7% identical to human). Titrating concentrations of the EphB1-Fc ectodomain (or unconjugated Fc protein as negative control) was added with titrating amounts of the three different EphrinB ectodomains (EB1-His, EB2-His, or EB3-His) with 125 ng each of the Protein A donor, anti-6×-His acceptor beads, 2% DMSO, and 1× HiBlock buffer (all from PerkinElmer) in 384 well plates, and after 3 hr incubation at RT were read in an Envision Multilabel Reader 2102. […] No signal above background (<1,500) was detected for wells that contained an Fc control protein and the EB-His proteins or just the EphB1-Fc protein and no EB-His protein.\nA20, E13, and other compounds from the top 32 hits were then characterized in pulldown assays. […]"}, "EphB1-EphrinB2": {"molecular_target": "T2, EphB1-EphrinB2 (Rattus norvegicus, UniProt P09759)", "T2 construct": "rat EphB1-Fc residues 18-538; mouse EB2-His residues 18-232; purchased R&D Systems (EphB1-Fc); Sino Biologicals (EB2-His)", "T2 sequence (P09759 18-538)": "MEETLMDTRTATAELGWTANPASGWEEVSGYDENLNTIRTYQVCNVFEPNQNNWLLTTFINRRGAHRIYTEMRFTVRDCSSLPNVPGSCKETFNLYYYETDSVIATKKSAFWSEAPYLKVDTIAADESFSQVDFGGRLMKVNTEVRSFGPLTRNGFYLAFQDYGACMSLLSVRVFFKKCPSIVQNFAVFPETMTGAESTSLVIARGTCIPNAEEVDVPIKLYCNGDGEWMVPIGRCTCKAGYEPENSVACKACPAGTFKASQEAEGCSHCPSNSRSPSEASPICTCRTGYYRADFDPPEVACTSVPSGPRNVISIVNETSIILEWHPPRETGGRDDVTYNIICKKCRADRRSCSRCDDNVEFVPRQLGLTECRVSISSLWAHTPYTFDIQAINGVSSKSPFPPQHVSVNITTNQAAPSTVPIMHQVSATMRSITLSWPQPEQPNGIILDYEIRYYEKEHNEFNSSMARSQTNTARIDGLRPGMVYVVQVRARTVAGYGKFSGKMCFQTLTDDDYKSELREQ", "assay": "shortened association (80 sec) Octet, immobilized rat EphB1-Fc binding to 100 nM mEB2-His", "parameters": "species or system mouse EphrinB2", "conditions": "for Kd: 1:1 fit, read-out: KD of EphB1-EB2; for increase in rate of dissociation (Kdis) / lower affinity of EphB1-EB2 / tetramer accumulation slope: role: inhibitor", "protocol": "In the above disclosed Octet interaction studies using human proteins the association and dissociation times were doubled to 800 and 1,000 sec, respectively, resulting in a greater accumulation of the super-stable surmountable and extra-super-stable unsurmountable forms of the Eph-Ephrin tetramers. To better assess early binding activities in the absence of A20, biophysical studies were conducted in which the association times were shortened to 80, 40, 20, 15, 10, and 5 sec, followed by a standard 500 sec dissociation, and where biosensor immobilized rEphB1-Fc ectodomain was exposed to 100 nM soluble mEB2-His. Focusing first on the run with 80 sec association step and for illustrative purpose (FIG. 23), the biosensor response indicates the expected rapid formation of EphB1-EB2 dimers with extremely high 87° slope for the first 10-15 sec of the association, which then quickly bends again as expected this time to a −60° slope as tetramers begin to accumulate. […] The dissociation response then quickly bent to level off and plateau at a signal much higher than baseline to represent the species of stable EphB1-EB2 tetramers that remained complexed throughout the remaining dissociation step.\nTo assess how A20 chemicals alter early binding activities, 80 sec Octet runs were then conducted using 0, 10, and 100 μM concentrations of the A20 salt compound (FIG. 25A 25B). In the absence of A20, the association response of immobilized EphB1 binding to soluble EB2 is typical to that shown in FIG. 24 and indicates rapid early formation of dimers with very high 87° slope that quickly bends to the tetramerization accumulation slope of −60°, and then once in the dissociation step the slope abruptly reverses to show fast-off of the dimer species with a signal that then leveled off in this experiment at 67% of the maximum response and represents accumulation of the stable tetramers. In runs containing A20, even though there was no effect on the early and fast formation of dimers during the 80 sec association step, there was a clear and very strong dose-dependent reduction in accumulation of the tetramer.\nThis can be especially seen in the analysis of the kinetic data where the parameters were set to calculate information based off of a 1:1 interaction (FIG. 25C). […] This increased rate of dissociation reflects the near absence in formation of stable tetramers and provides a fairly accurate representation of the Kdis that is specifically attributed to the fast-off melting of dimers. Summarizing these biophysical studies, in the presence of A20 only the fast-on/fast-off dimers form and are visualized in the association step, quickly reaching a homeostasis level of dimers forming and melting in equilibrium (fast-on/fast-off), and not being able to associate into tetramers. Then, when placed into the dissociation step, all the existing dimers quickly melt off leaving behind the few tetramers that were able to form. […] Based on the results, it is concluded that A20 chemicals can be classified as specific/select inhibitors of Eph-Ephrin tetramerization."}}, "note": "Read-outs that look alike come from different tables or passages of the source."}
{"compound": "Oc1c(Br)cc(CN2CCOCC2)c2cccnc12", "note": "[Compound 5, 7-bromo-5-(morpholinomethyl)quinolin-8-ol]", "values": [{"measurement": "IC50", "setting": "EphB2-Fc with EB2-His", "result": "~10000", "unit": "nM"}, {"measurement": "Kd", "setting": "EphB1-EphrinB2; in presence of 10 μM A20", "result": 10.5, "unit": "nM"}, {"measurement": "Kd", "setting": "EphB1-EphrinB2; in presence of 100 μM A20", "result": 46.2, "unit": "nM"}, {"measurement": "increase in rate of dissociation (Kdis)", "setting": "EphB1-EphrinB2; 10 μM A20", "result": 90, "unit": "fold"}, {"measurement": "lower affinity of EphB1-EB2", "setting": "EphB1-EphrinB2; 10 μM A20", "result": 76, "unit": "fold"}, {"measurement": "tetramer accumulation slope", "setting": "EphB1-EphrinB2; 10 μM A20, 60° without", "result": 16, "unit": "°"}, {"measurement": "increase in rate of dissociation (Kdis)", "setting": "EphB1-EphrinB2; 100 μM A20", "result": 275, "unit": "fold"}, {"measurement": "lower affinity of EphB1-EB2", "setting": "EphB1-EphrinB2; 100 μM A20", "result": 337, "unit": "fold"}, {"measurement": "tetramer accumulation slope", "setting": "EphB1-EphrinB2; 100 μM A20", "result": "flat line with no slope"}]}
